The compounds below were run against HPK1 (Homo sapiens (Human), UniProt Q92918) (assay: HPK1 biochemical enzyme assay (microfluidic mobility shift assay)). Conditions: 1.5 nM HPK1, ATP 1 mM final, 30 min preincubation, 60 min at RT, Caliper EZ Reader; read-out: HPK1 1000UMATP caliper IC50.
In short: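 Mobility shift readout of HPK1 activity after a 60 min RT reaction with 1 mM ATP, 1 μM substrate and 5 mM MgCl2. Enzyme/substrate mix was first exposed to compounds for 30 min, using ten-point curves topping at 3 μM final.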

Sequence of HPK1 (Q92918 whole entry): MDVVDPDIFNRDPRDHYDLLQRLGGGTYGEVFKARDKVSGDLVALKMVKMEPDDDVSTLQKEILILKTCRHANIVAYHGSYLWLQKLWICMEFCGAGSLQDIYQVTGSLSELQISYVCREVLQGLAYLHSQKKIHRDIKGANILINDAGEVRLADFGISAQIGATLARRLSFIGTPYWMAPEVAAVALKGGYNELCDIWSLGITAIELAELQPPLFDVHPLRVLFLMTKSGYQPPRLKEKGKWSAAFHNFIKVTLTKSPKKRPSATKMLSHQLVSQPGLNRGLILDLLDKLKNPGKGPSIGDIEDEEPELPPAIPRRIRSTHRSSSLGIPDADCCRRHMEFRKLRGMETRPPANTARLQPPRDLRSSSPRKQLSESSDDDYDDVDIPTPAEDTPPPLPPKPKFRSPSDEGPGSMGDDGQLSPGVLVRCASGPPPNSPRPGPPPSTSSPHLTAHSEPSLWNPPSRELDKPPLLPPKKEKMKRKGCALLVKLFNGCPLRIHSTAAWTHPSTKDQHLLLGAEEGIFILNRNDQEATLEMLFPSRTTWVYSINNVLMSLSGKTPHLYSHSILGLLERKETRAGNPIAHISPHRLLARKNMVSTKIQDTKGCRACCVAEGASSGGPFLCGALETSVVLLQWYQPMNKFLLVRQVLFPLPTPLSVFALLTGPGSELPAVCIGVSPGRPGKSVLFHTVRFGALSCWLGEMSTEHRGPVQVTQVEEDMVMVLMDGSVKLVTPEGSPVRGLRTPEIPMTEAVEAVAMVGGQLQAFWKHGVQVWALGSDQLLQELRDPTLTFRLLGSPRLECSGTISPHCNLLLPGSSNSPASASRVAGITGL

`O=C1NCc2c(-c3cnc4cc(Cl)ccn34)ccc(Nc3ccc(N4CCC(O)CC4)cn3)c21` [I-187, 4-(7-chloroimidazo [1,2-a]pyridin-3-yl)-7-[[5-(4-hydroxy-1-piperidyl)-2-pyridyl]amino] isoindolin-1-one] and `Cc1cc2c(-c3ncc(Nc4ccc(N5CCC[C@H](C(C)(C)O)C5)cn4)c4c3CNC4=O)ccnc2n1C` [I-229] cannot be ordered by IC50: less than 0.1 µM for the first, less than 0.1 µM for the second.

First: CNC1CCN(c2ccc(Nc3ccc(-c4ccnc5c4ccn5C)c4c3C(=O)NC4)nc2)CC1 [I-62, 7-[[5-[4-(methylamino)-1-piperidyl]-2-pyridyl]amino]-4-(1-methylpyrrolo [2,3-b]pyridin-4-yl)isoindolin-1-one]
Second: CN1CCN(c2ccc(Nc3cnc(-c4c[nH]c5cc(F)ccc45)c4c3C(=O)NC4)nc2)CC1 [I-53, 4-(6-fluoro-1H-indol-3-yl)-7-[[5-(4-methylpiperazin-1-yl)-2-pyridyl]amino]-2,3-dihydropyrrolo [3,4-c]pyridin-1-one]
The IC50 of the first is lower: less than 0.1 µM for the first, 0.1 to 1 µM for the second. The first is the more potent here.

`Cc1csc2c(-c3ncc(Nc4ccc(N5CCC(O)CC5)cn4)c4c3CNC4=O)ccnc12` [I-373, 7-((5-(4-hydroxypiperidin-1-yl)pyridin-2-yl)amino)-4-(3-methylthieno [3,2-b]pyridin-7-yl)-2,3-dihydro-1H-pyrrolo[3,4-c]pyridin-1-one] and `Cn1ccc2c(-c3ncc(Nc4ccc(N5CCC[C@](O)(CN6CCOCC6)C5)cn4)c4c3CNC4=O)ccnc21` (single isomer, unassigned) [I-674] cannot be ordered by IC50: less than 0.1 µM for the first, less than 0.1 µM for the second.

Going from `COc1cc(N2CCC(O)CC2)cnc1Nc1ccc(-c2ccnc3c2ccn3C)c2c1C(=O)NC2` [I-267, 7-((5-(4-hydroxy-piperidin-1-yl)-3-methoxypyridin-2-yl)amino)-4-(1-methyl-1H-pyrrolo[2,3-b]pyridin-4-yl)isoindolin-1-one] to `Cc1cccn2c(-c3ccc(Nc4ccc(N5CCC(O)CC5)cn4)c4c3CNC4=O)cnc12` [I-135, 7-[[5-(4-hydroxy-1-piperidyl)-2-pyridyl]amino]-4-(8-methylimidazo [1,2-a]pyridin-3-yl)isoindolin-1-one], the IC50 falls from greater than 1 µM to less than 0.1 µM.

`COCC1CN(c2ccc(Nc3ccc(-c4cnc5cnccn45)c4c3C(=O)NC4)nc2)CCO1` (stereo in doubt) [I-333, (S)-4-(imidazo[1,2-a]pyrazin-3-yl)-7-((5-(2-(methoxymeth-yl)morpholino)-pyridin-2-yl)amino)isoin-dolin-1-one] and `CNCc1nc(Nc2ccc(-c3cnc4cc(F)ccn34)c3c2C(=O)NC3)ccc1C1CCOC1` (stereo in doubt) [I-723, (R)-4-(7-fluoroimidazo [1,2-a]pyridin-3-yl)-7-((6-((methyl-amino)methyl)-5-(tetrahydrofuran-3-yl)pyridin-2-yl)amino)isoin-dolin-1-one] cannot be ordered by IC50: less than 0.1 µM for the first, less than 0.1 µM for the second.

`CC1(N2CCOCC2)CCN(c2ccc(Nc3ccc(-c4cnc5cc(F)ccn45)c4c3C(=O)NC4)nc2)CC1` [I-429, 4-(7-fluoroimidazo [1,2-a]pyridin-3-yl)-7-((5-(4-methyl-4-morpholinopip-eridin-1-yl)pyridin-2-yl)amino)isoin-dolin-1-one] and `Cc1ccn2c(-c3ccc(Nc4ccc(N5CCC(O)CC5)cn4)c4c3CNC4=O)cnc2c1` [I-126, 7-[[5-(4-hydroxy-1-piperidyl)-2-pyridyl]amino]-4-(7-methylimidazo [1,2-a]pyridin-3-yl)isoindolin-1-one] cannot be ordered by IC50: less than 0.1 µM for the first, less than 0.1 µM for the second.

`Cc1ccn2c(-c3ccc(Nc4ccc(N5CCC[C@@H](C(C)(C)O)C5)cn4)c4c3CNC4=O)cnc2n1` [I-233, 7-[[5-[(3R)-3-(1-hydroxy-1-methyl-ethyl)-1-piperidyl)-2-pyridyl)-amino]-4-(7-methylimidazo [1,2-a]pyrimidin-3-yl]isoindolin-1-one] and `COCCN(C)Cc1nc(Nc2ccc(-c3cnc4cc(F)ccn34)c3c2C(=O)NC3)ccc1C1CCOC1` (stereo in doubt) [I-727, (R)-4-(7-fluoroimidazo [1,2-a]pyridin-3-yl)-7-((6-(((2-methoxyethyl) (methyl)-amino)methyl)-5-(tetrahydrofuran-3-yl)pyridin-2-yl)amino)isoin-dolin-1-one] cannot be ordered by IC50: less than 0.1 µM for the first, less than 0.1 µM for the second.

`C[C@H]1CCn2c(-c3ccc(Nc4ccc(N5CCC(O)CC5)cn4)c4c3CNC4=O)cnc2C1` [I-303, (S)-7-((5-(4-hydroxy-piperidin-1-yl)pyridin-2-yl)amino)-4-(7-methyl-5,6,7.8-tetrahydroimi-dazo[1,2-a]pyridin-3-yl)isoindolin-1-one] and `O=C1NCc2c(-c3cnc4cc(F)ccn34)ccc(Nc3ccc(N4CCC(O)(CN5CCOCC5)CC4)cn3)c21` [I-348, 4-(7-fluoroimidazo [1,2-a]pyridin-3-yl)-7-((5-(4-hydroxy-4-(morpholino-methyl)piperidin-1-yl)pyridin-2-yl)amino)isoin-dolin-1-one] cannot be ordered by IC50: less than 0.1 µM for the first, less than 0.1 µM for the second.

`Cc1cc2c(-c3ncc(Nc4ccc(N5CCC[C@@H](C(C)(C)O)C5)cn4)c4c3CNC4=O)ccnc2n1C` [I-237, 4-[1,2-dimethylpyrrolo [2,3-b]pyridin-4-yl)-7-[[5-[(3R)-3-(1-hydroxy-1-methyl-ethyl)-1-piperidyl]-2-pyridyl]amino]-2,3-dihydropyrrolo [3,4-c]pyridin-1-one] and `CN1CCN(c2ccc(Nc3ccc(-c4ccnc5c4ccn5Cc4ccccc4)c4c3C(=O)NC4)nc2)CC1` [I-257, 4-(1-benzyl-1H-pyrrolo[2,3-b]pyridin-4-yl)-7-((5-(4-methylpiperazin-1-yl)pyridin-2-yl)amino)isoin-dolin-1-one] fall in the same range of IC50: 0.1 to 1 µM for the first, 0.1 to 1 µM for the second.

`O=C1NCc2c(-c3cnc4cc(F)ccn34)ccc(Nc3ccc([C@H]4CCOC4)c(CN4CCC4)n3)c21` [I-756, (R)-7-((6-(azetidin-1-ylmethyl)-5-(tetrahydrofuran-3-yl)pyridin-2-yl)amino)-4-(7-fluoroimidazo [1,2-a]pyridin-3-yl)isoindolin-1-one] and `O=C1NCc2c(-c3cnc4cnccn34)ccc(Nc3ccc(N4CCC(O)CC4)cn3)c21` [I-133, 7-[[5-(4-hydroxy-1-piperidyl)-2-pyridyl]amino]-4-imidazo[1,2-a]pyrazin-3-yl-isoindolin-1-one] cannot be ordered by IC50: less than 0.1 µM for the first, less than 0.1 µM for the second.

“(R)-7-((6- ((dimethylamino)- methyl)-5- (tetrahydrofuran- 3-yl)pyridin- 2-yl)amino)-4- (8-methylimidazo [1,2-a]pyridin- 3-yl)isoindolin- 1-one [I-696]” and `O=C1NCc2c(-c3cnc4cc(OCCO)ccn34)ccc(Nc3ccc(N4CCOCC4)cn3)c21` [I-201, 4-[7-(2-hydroxyeth-oxy)imidazo[1,2-a]pyridin-3-yl]-7-[(5-morpholino-2-pyridyl)amino] isoindolin-1-one] cannot be ordered by IC50: less than 0.1 µM for the first, less than 0.1 µM for the second.

`Cc1cc(Nc2cnc(-c3ccnc4c3ccn4C)c3c2C(=O)NC3)nc(N2CC[C@H]3CN(C)C[C@H]32)c1` [I-643, 4-(1-methyl-1H-pyrrolo[2,3-b]pyridin-4-yl)-7-((4-methyl-6-((3aS,6aS)-5-methylhcxahydropyrrolo[3,4-b]pyrrol-1(2H)-yl)pyridin-2-yl)amino)-2,3-dihydro-1H-pyrrolo[3,4-c]pyridin-1-one] and `CN(C)Cc1nc(Nc2ccc(-c3cnc4cc(F)ccn34)c3c2C(=O)NC3)ccc1N1CCO[C@H](C(C)(C)O)C1` [I-774, (S)-7-((6-((dimethylamino)-methyl)-5-(2-(2-hydroxypropan-2-yl)morpho-lino)pyridin-2-yl)amino)-4-(7-fluoroimidazo [1,2-a]pyridin-3-yl)isoindolin-1-one] cannot be ordered by IC50: less than 0.1 µM for the first, less than 0.1 µM for the second.

First: CN1CC(O)(C2CCCN(c3ccc(Nc4ccc(-c5cnc6cc(F)ccn56)c5c4C(=O)NC5)nc3)C2)C1 (stereo in doubt) [I-678, (R)-4-(7-fluoroimidazo [1,2-a]pyridin-3-yl)-7-((5-(3-(3-hydroxy-1-methylazetidin-3-yl)piperidin-1-yl)pyridin-2-yl)amino)isoin-dolin-1-one]
Second: C[C@@H](c1nc(Nc2ccc(-c3cnc4cc(F)ccn34)c3c2C(=O)NC3)ccc1[C@H]1CCOC1)N(C)C (single isomer, unassigned) [I-818]
The IC50 of the first is lower: less than 0.1 µM for the first, 0.1 to 1 µM for the second.

Compared with `O=C1NCc2c(-c3cnc4cnccn34)ccc(Nc3ccc(N4C[C@H]5COC[C@H]5C4)cn3)c21` [I-318, 4-(imidazo[1,2-a]pyrazin-3-yl)-7-((5-((3aR,6aS)-tetrahydro-1H-furo[3,4-c]pyrrol-5(3H)-yl)pyridin-2-yl)amino)isoin-dolin-1-one], `CN1CCN(c2ccc(Nc3ccc(-c4cnc5c(ccn5C)c4)c4c3C(=O)NC4)nc2)CC1` [I-44, 7-[[5-(4-methylpiperazin-1-yl)-2-pyridyl]amino]-4-(1-methylpyrrolo [2,3-b]pyridin-5-yl)isoindolin-1-one] is higher in IC50: less than 0.1 µM for the first, 0.1 to 1 µM for the second. The first is the more potent here.

`O=C1NCc2c(-c3cnc4cnccn34)ccc(Nc3ccc(N4CC[C@@H](F)[C@H](O)C4)cn3)c21` [I-434, 7-((5-((3R,4R)-4-fluoro-3-hydroxypiperidin-1-yl)pyridin-2-yl)amino)-4-(imidazo[1,2-a]pyrazin-3-yl)isoindolin-1-one] and `CN(C)Cc1nc(Nc2ccc(-c3cnc4cc(F)ccn34)c3c2C(=O)NC3)ccc1[C@]1(O)CCOC1` [I-803, (R)-7-((6-((dimethylamino)-methyl)-5-(3-hydroxytetra-hydrofuran-3-yl)pyridin-2-yl)amino)-4-(7-fluoroimidazo [1,2-a]pyridin-3-yl)isoindolin-1-one] cannot be ordered by IC50: less than 0.1 µM for the first, less than 0.1 µM for the second.

`O=C1NCc2c(-c3cnc4cc(F)ccn34)ccc(Nc3ccc(N4CCO[C@@H](C5(O)CC5)C4)cn3)c21` (single isomer, unassigned) [I-663] and `O=C1NCc2c(-c3cnn4cccnc34)ccc(Nc3ccc(N4CCC(O)CC4)cn3)c21` [I-157, 7-[[5-(4-hydroxy-1-piperidyl)-2-pyridyl]amino]-4-pyrazolo[1,5-a]pyrimidin-3-yl-isoindolin-1-one] cannot be ordered by IC50: less than 0.1 µM for the first, less than 0.1 µM for the second.

For `C[C@H]1C[C@@H](O)CCN1c1ccc(Nc2ccc(-c3cnc4cnccn34)c3c2C(=O)NC3)nc1` [I-349, 7-((5-((2S,4S)-4-hydroxy-2-methylpiperidin-1-yl)pyridin-2-yl)amino)-4-(imidazo[1,2-a]pyrazin-3-yl)isoindolin-1-one], the IC50 was less than 0.1 µM.

Source: patent US11021481B2, “Substituted isoindolin-1-ones and 2,3-dihydro-1h-pyrrolo[3,4-c]pyridin-1-ones as HPK1 antagonists” (Nimbus Saturn, Inc., priority 2019, dated 2021)
